Assay results as given in ChEMBL document CHEMBL4651402, “Screening of ~5500 FDA-approved drugs and clinical candidates for anti-SARS-CoV-2 activity” (2021).
Bridge positions count the residues as written; N and C are the ends. Square brackets hold non-standard residues; d marks the D form. Peptide text beside a SMILES is read from it. * marks the point of attachment. NH(β-GlcNAc) = CC(=O)N[C@@H]1[C@@H](O)[C@H](O)[C@@H](CO)O[C@H]1N*; Dap = NC[C@H](N)C(=O)O

Test system: SARS-CoV-2
Test: microbe, parasite or virus in culture
Conditions: Severe acute respiratory syndrome coronavirus 2, Vero C1008, 48 h

COc1ccc2cc([C@H](C)CO)ccc2c1 [NAPROXOL] gave an IC50 greater than 20 µM and an IC50 (read-out: pIC50 (converted)) greater than 20 µM.
Work on CC1CN(C)CC2Cc3c(ccc4ccccc34)OC12O (stereo not given) [NARANOL] yielded an IC50 greater than 20 µM and an IC50 (read-out: pIC50 (converted)) greater than 20 µM.
COc1ccc(C(=O)Cc2c(CCN(C)C)cc3c(c2OC)OCO3)c(C(=O)O)c1OC [NARCEINE] was tested, and the IC50 was greater than 20 µM and the IC50 (read-out: pIC50 (converted)) was greater than 20 µM.
O=C1C[C@@H](c2ccc(O)cc2)Oc2cc(O)cc(O)c21 [NARINGENIN] was tested, and the IC50 was greater than 20 µM and the IC50 (read-out: pIC50 (converted)) was greater than 20 µM.
In the case of C[C@@H]1O[C@@H](O[C@H]2[C@H](Oc3cc(O)c4c(c3)O[C@H](c3ccc(O)cc3)CC4=O)O[C@H](CO)[C@@H](O)[C@@H]2O)[C@H](O)[C@H](O)[C@H]1O [NARINGIN], the IC50 is reported as greater than 20 µM and the IC50 (read-out: pIC50 (converted)) is reported as greater than 20 µM.
In the case of CC(C)[C@H]1CC[C@H](C(=O)N[C@H](Cc2ccccc2)C(=O)O)CC1 [NATEGLINIDE], the IC50 is reported as greater than 20 µM and the IC50 (read-out: pIC50 (converted)) is reported as greater than 20 µM.
Work on CC[C@@H](Nc1c(Nc2cccc(C(=O)N(C)C)c2O)c(=O)c1=O)c1ccc(C)o1 [NAVARIXIN ANHYDROUS] yielded an IC50 greater than 20 µM and an IC50 (read-out: pIC50 (converted)) greater than 20 µM.
Cc1cc(C(=O)Nc2nc3cccc(Cl)c3n2[C@@H]2CCCCN(C(=O)/C=C/CN(C)C)C2)ccn1 [NAZARTINIB] gave an IC50 greater than 20 µM and an IC50 (read-out: pIC50 (converted)) greater than 20 µM.
NC[C@H]1O[C@H](O[C@H]2[C@H](O)[C@@H](O)[C@H](N)C[C@@H]2N)[C@H](N)[C@@H](O)[C@@H]1O [NEAMINE] was tested, and the IC50 was greater than 20 µM and the IC50 (read-out: pIC50 (converted)) was greater than 20 µM.
With CCCc1c2oc(C(=O)O)cc(=O)c2cc2c(=O)cc(C(=O)O)n(CC)c12 [NEDOCROMIL] the IC50 was greater than 20 µM and the IC50 (read-out: pIC50 (converted)) was greater than 20 µM.
CCc1nn(CCCN2CCN(c3cccc(Cl)c3)CC2)c(=O)n1CCOc1ccccc1 [NEFAZODONE] was tested, and the IC50 was greater than 20 µM and the IC50 (read-out: pIC50 (converted)) was greater than 20 µM.
Compound O=c1ncn2nc(Sc3ccc(F)cc3F)ccc2c1-c1c(Cl)cccc1Cl [NEFLAMAPIMOD] has an IC50 greater than 20 µM and an IC50 (read-out: pIC50 (converted)) greater than 20 µM.
CN1CCOC(c2ccccc2)c2ccccc2C1 (stereo not given) [NEFOPAM] was tested, and the IC50 was greater than 20 µM and the IC50 (read-out: pIC50 (converted)) was greater than 20 µM.
With COc1nc(N)nc2c1ncn2[C@@H]1O[C@H](CO)[C@@H](O)[C@@H]1O [NELARABINE] the IC50 was greater than 50.1 µM and the IC50 (read-out: pIC50 (converted)) was greater than 50.1 µM.
For COc1ccc(CCC(=O)c2c(O)cc(O[C@@H]3O[C@H](CO)[C@@H](O)[C@H](O)[C@H]3O[C@@H]3O[C@@H](C)[C@H](O)[C@@H](O)[C@H]3O)cc2O)cc1O [NEOHESPERIDIN DIHYDROCHALCONE], the IC50 was greater than 20 µM and the IC50 (read-out: pIC50 (converted)) was greater than 20 µM.
With CN(C)C(=O)Oc1cccc([N+](C)(C)C)c1 [NEOSTIGMINE] the IC50 was greater than 20 µM and the IC50 (read-out: pIC50 (converted)) was greater than 20 µM.
CC(=O)N[C@@H]1[C@@H](O)[C@H](O)[C@@H](CO)O[C@H]1NC(=O)C[C@@H]1NC(=O)[C@H](CC(C)C)NC(=O)[C@@H]2CNC(=O)C[C@H](NC1=O)C(=O)N[C@@H](Cc1c[nH]c3ccccc13)C(=O)N[C@@H](Cc1ccccc1)C(=O)N2 [NEPADUTANT] (cyclo(D(NH(β-GlcNAc))DWF[Dap]L); lactam 2-5) gave an IC50 greater than 20 µM and an IC50 (read-out: pIC50 (converted)) greater than 20 µM.
CNC(=O)c1c(-c2ccc(F)cc2)oc2cc(N(CCO)S(C)(=O)=O)c(C3CC3)cc12 [NESBUVIR] was tested, and the IC50 was greater than 20 µM and the IC50 (read-out: pIC50 (converted)) was greater than 20 µM.
With O=C1NC(=O)C(Cc2ccc3cc(OCc4ccccc4F)ccc3c2)S1 (stereo not given) [NETOGLITAZONE] the IC50 was greater than 20 µM and the IC50 (read-out: pIC50 (converted)) was greater than 20 µM.
Work on Cc1ccccc1-c1cc(N2CCN(C)CC2)ncc1N(C)C(=O)C(C)(C)c1cc(C(F)(F)F)cc(C(F)(F)F)c1 [NETUPITANT] yielded an IC50 greater than 20 µM and an IC50 (read-out: pIC50 (converted)) greater than 20 µM.
Cc1ccnc2c1NC(=O)c1cccnc1N2C1CC1 [NEVIRAPINE] was tested, and the IC50 was greater than 20 µM and the IC50 (read-out: pIC50 (converted)) was greater than 20 µM.
Work on NC(=O)c1cccnc1 [NIACINAMIDE] yielded an IC50 greater than 20 µM and an IC50 (read-out: pIC50 (converted)) greater than 20 µM.
With O=C(O)c1cccnc1 [NIACIN] the IC50 was greater than 20 µM and the IC50 (read-out: pIC50 (converted)) was greater than 20 µM.
O=C(CCNNC(=O)c1ccncc1)NCc1ccccc1 [NIALAMIDE] gave an IC50 greater than 20 µM and an IC50 (read-out: pIC50 (converted)) greater than 20 µM.
In the case of CC(CCN1CCN(c2ccc(F)cc2)CC1)NC(=O)c1cccnc1 (stereo not given) [NIAPRAZINE], the IC50 is reported as greater than 20 µM and the IC50 (read-out: pIC50 (converted)) is reported as greater than 20 µM.
Work on COC(=O)C1=C(C)NC(C)=C(C(=O)OCCN(C)Cc2ccccc2)C1c1cccc([N+](=O)[O-])c1 (stereo not given) [NICARDIPINE] yielded an IC50 greater than 20 µM and an IC50 (read-out: pIC50 (converted)) greater than 20 µM.
Compound CO[C@]12C[C@@H](COC(=O)c3cncc(Br)c3)CN(C)[C@@H]1Cc1cn(C)c3cccc2c13 [NICERGOLINE] has an IC50 greater than 20 µM and an IC50 (read-out: pIC50 (converted)) greater than 20 µM.
Compound O=C(Nc1ccc([N+](=O)[O-])cc1Cl)c1cc(Cl)ccc1O [NICLOSAMIDE] has an IC50 greater than 20 µM and an IC50 (read-out: pIC50 (converted)) greater than 20 µM.
In the case of O=C(c1cccnc1)N1CCOCC1 [NICOPHOLINE], the IC50 is reported as greater than 20 µM and the IC50 (read-out: pIC50 (converted)) is reported as greater than 20 µM.
In the case of O=C(NCCO[N+](=O)[O-])c1cccnc1 [NICORANDIL], the IC50 is reported as greater than 20 µM and the IC50 (read-out: pIC50 (converted)) is reported as greater than 20 µM.
Compound NC(=O)c1ccc[n+]([C@@H]2O[C@H](CO)[C@@H](O)[C@H]2O)c1 [NICOTINAMIDE RIBOSIDE] has an IC50 greater than 20 µM and an IC50 (read-out: pIC50 (converted)) greater than 20 µM.
Compound CN1CCC[C@H]1c1cccnc1 [NICOTINE] has an IC50 greater than 20 µM and an IC50 (read-out: pIC50 (converted)) greater than 20 µM.
OCc1cccnc1 [NICOTINYL ALCOHOL] gave an IC50 greater than 20 µM and an IC50 (read-out: pIC50 (converted)) greater than 20 µM.
COC(=O)C1=C(C)NC(C)=C(C(=O)OC)C1c1ccccc1[N+](=O)[O-] [NIFEDIPINE] was tested, and the IC50 was greater than 20 µM and the IC50 (read-out: pIC50 (converted)) was greater than 20 µM.
Cn1c(NCCN(CCO)CCCc2ccc([N+](=O)[O-])cc2)cc(=O)n(C)c1=O [NIFEKALANT] was tested, and the IC50 was greater than 20 µM and the IC50 (read-out: pIC50 (converted)) was greater than 20 µM.
